Results reported in patent US10391137B2, “Platelet-derived growth factor-BB production promotor, and mesenchymal stem cell production accelerator, stem cell stabilizer and dermal regenerator comprising the same” (Shiseido Company, Ltd., priority 2011, dated 2019).

System: PDGF-B gene expression in human vascular endothelial cells HUVEC
Assay: Evaluation of PDGF-BB production-promoting effect in vascular endothelial cells (PDGF-B mRNA, quantitative RT-PCR)
Type: cell-based
Details: 10 ppm in medium, cultured 2 days, PDGF-BB mRNA vs. solvent control, G3PDH internal standard
Protocol: Human vascular endothelial cells HUVEC were subcultured with EGM-2 medium (Sanko Junyaku Co., Ltd.), and cells of the 4th subculture were suspended in VEGF-A-free Humedia-EG2 medium (Kurabo Industries, Ltd.) and seeded in a collagen-coated 24-well multiplate (Asahi Glass Co., Ltd.) at a 20,000 cell ratio, and culturing was conducted in the presence of 5% CO2 for 3-5 days until the cells reached confluence at 37° C. After exchange with Humedia-EG2 medium (Kurabo Industries, Ltd.) containing each sample added to the specified concentration or an added solvent dissolving each evaluation sample, culturing was continued for 2 days. The mRNA was extracted and purified from the cultured cells using an RNA extraction reagent MagNA Pure LC mRNA HS kit (Roche) and an automatic nucleic acid extraction apparatus MagNA Pure LC 1.0 Instrument (Roche), according to the manufacturer's protocol. For each sample, an equal volume of mRNA was used as template for one-step quantitative real time (RT)-PCR of the PDGF-B gene using primer pairs of SEQ ID NO: 1 and 2 listed below, the reaction reagent QuantiFast SYBR Green RT-PCR Kit (Qiagen) and a LightCycler reactor (Roche). The composition conditions were according to the protocol by Qiagen. […]

Row | Compound | PDGF-BB expression (vs. control)
1 | O=P(O)(O)O[C@H]1[C@H](OP(=O)(O)O)[C@@H](OP(=O)(O)O)[C@H](OP(=O)(O)O)[C@@H](OP(=O)(O)O)[C@H]1OP(=O)(O)O [Phytic acid, phytic acid] | 1.20
2 | O[C@H]1[C@H](O)[C@@H](O)[C@H](O)[C@@H](O)[C@H]1O [Inositol, myo-inositol] | 1.37
